Results on five molecules are retold here after patent US20210386367A1, “DEVICES AND SYSTEMS FOR GASTROINTESTINAL MICROBIOME DETECTION AND MANIPULATION” (Progenity, Inc., priority 2018, published 2021).

Experiment [1] relates to Bacteroides spp. (B. fragilis ATCC 25285, B. vulgatus, B. ovatus MMX 3503). Particulars: cited from earlier work.
Experiment [2] deals with E. coli (ATCC 25922, ATCC 35218, MMX 1312). The following applies: cited from earlier work.
The subject of experiment [3] is Bacteroides spp. spontaneous mutants. The following applies: B. fragilis ATCC 25285; CLSI QC range shown in parentheses; cited from earlier work.
Experiment [4] relates to Streptococcus spp. (S. pneumoniae ATCC 49619, S. pyogenes ATCC 49399, S. agalactiae ATCC 13813). The following applies: cited from earlier work.
In experiment [5] the test system is B. fragilis ATCC 25285. Particulars: B. fragilis MMX 123 ATCC 25285; cited from earlier work.
A further experiment deals with E. coli ATCC 25922. The following applies: cited from earlier work.
For experiment [6], the system named is B. fragilis ATCC 25285. In words: Time-kill assay. The format is cell-based, Bacteroides fragilis. The following applies: 2×, 4×, 8× MIC; 2, 6, 24, 48 hr.
The subject of experiment [7] is E. coli spontaneous mutants. Particulars: E. coli ATCC 25922; CLSI QC range shown in parentheses; cited from earlier work.
Experiment [8] relates to E. coli ATCC 35218 (TEM-1 β-lactamase producer). Particulars: cited from earlier work.
Another experiment concerns Bacteroides spp. In words: Spontaneous mutation frequency assay. The format is cell-based. Here is the method:
Initial values of the MIC were determined by agar dilution in accordance with guidelines from the Clinical and Laboratory Standards Institute (CLSI; (1) “Methods for Dilution Antimicrobial Susceptibility Tests for Bacteria That Grow Aerobically; Approved Standard; 11th ed.,” CLSI standard M07, 2018; (2) “Methods for Antimicrobial Susceptibility Testing of Anaerobic Bacteria; Approved Standard—Eighth Edition,” CLSI document M11-A8, 2012.).
The agar plates were prepared by mixing a ratio of 1.0 mL of concentrated drug to 49.0 mL of the appropriate molten (47° C.) agar; the drug-supplemented agar was mixed, poured into 15-by-150 mm petri dishes and allowed to solidify and dry at room temperature prior to inoculation. […] Each plate was allowed to cool at room temperature for at least 1 hr.
The isolates were streaked onto the appropriate agar medium and incubated for 20 hr (aerobes) or 48 hr (Bacteroides under anaerobic conditions). Using a sterile swab, several well-isolated colonies were removed and resuspended in sterile saline at a heavy cell density. Each plate was inoculated with 0.5 mL of the cell suspension (each test concentration was inoculated in duplicate). The target inoculum for each spontaneous mutation plate was 10^9-10 CFU. In addition, a portion of the inoculum from each isolate was enumerated by making dilutions, spreading on agar and counting colonies.
Once the inoculum was absorbed into the agar, the plates were incubated at 35° C. Aerobes were examined at 24 and 48 hr, and resulting colonies were counted. Bacteroides were incubated anaerobically for 48-72 hr in the anaerobe chamber and colonies were counted.
Colony counts from plates used to enumerate the initial inoculum density and from the resulting spontaneous mutation frequency test plates were determined. The inoculum size was calculated as CFU inoculated per plate. The spontaneous mutation frequency was calculated using the counts from duplicate spontaneous mutation assay test plates as follows:
If there were no colonies on the antibiotic selection plates, the spontaneous mutation frequency was reported as less than the frequency observed with one colony to indicate that the spontaneous mutation frequency was less than the limit of detection (one CFU). […] The mutation prevention concentration (MPC) was reported as the lowest concentration for which no mutants were selected.

The subject of another experiment is B. ovatus MMX 3503. In words: Time-kill assay. Type of experiment: cell-based, Bacteroides ovatus. Particulars: for time-kill kinetics outcome (bactericidal = ≥3 log reduction in CFU per mL): 2×, 4×, 8× MIC, 2, 6, 24, 48 hr.
A further experiment concerns B. ovatus. In words: Spontaneous mutation frequency and mutation prevention concentration (MPC). The format is cell-based. Particulars: B. ovatus MMX 3503. An excerpt:
(§1) As used herein, “spontaneous mutation frequency” refers to the rate at which mutations arise in a bacterium that can lead to resistance to develop to an antimicrobial agent. “Mutation prevention concentration” or “MPC” refers to the lowest concentration of antimicrobial agent above which the selective proliferation of resistant mutants is expected to occur only rarely.

A further experiment concerns B. fragilis. Described as above. Particulars: B. fragilis ATCC 25285. The format is cell-based.
Excerpt: as §1

Experiment [9] has as its system Clostridium spp. clinical isolates. As to the kind of experiment: MIC distribution against clinical isolates. Type of experiment: cell-based. The following applies: 10 Clostridium spp. isolates. The text has this: (n=4 C. sporogenes, n=2 C. ramosum and n=4 C. innocuum) clinical isolates (μg/mL).
As used herein, “minimum inhibitory concentration” or “MIC” refers to the lowest concentration of an antimicrobial agent, for example, an antimicrobial agent as described herein, required to inhibit the growth of an organism. […] “MIC90” represents the MIC value at which ≥90% of the strains within a test population are inhibited; the 90th percentile.
Many susceptibility testing methods are known in the art and can be used as described herein (see, e.g., Jorgensen and Ferraro (2009) Clinical Infectious Diseases 49:1749-1755; and Maurer et al. (2017) Infectious Disease Reports 9:6839; the entire contents of each of the foregoing are incorporated herein by reference). For example, antimicrobial susceptibility can be determined using conventional culture based methods such as the broth or agar dilution test. In these dilution tests, the bacterial isolate of interest is inoculated onto different media that include serial dilutions of an antimicrobial agent, and incubated under appropriate conditions (e.g., overnight at 37° C.) to allow for growth to occur. Following the incubation period, the media is examined to determine bacterial growth. The lowest concentration of antibiotic that prevents growth represents the minimal inhibitory concentration (MIC). Broth dilution tests can be miniaturized and mechanized allowing for reproducibility and high throughput.

The next experiment concerns Prevotella spp. Particulars: cited from earlier work.
The mark [10] stands for this setting: rifaximin selection 4X MIC, 2 μg/mL.
Setting [11] is: rifaximin selection 8X MIC, 4 μg/mL.
The mark [12] stands for this setting: rifaximin selection 4X MIC, 1 μg/mL.
Setting [13] is: rifaximin selection 8X MIC, 2 μg/mL.

Values after ≈ are worked out from the molar mass of the structure shown.

As for `C[C@@H](O)[C@H]1C(=O)N2C(C(=O)O)=C(S[C@@H]3CN[C@H](C(=O)N(C)C)C3)[C@H](C)[C@H]12` [meropenem], the figures for the “CLSI QC range (agar MIC)” value in experiment [1], in experiment [2] and in [4] were 0.03 to 0.25 µg/mL, 0.008 to 0.06 µg/mL and 0.03 to 0.25 µg/mL, respectively. For the same molecule, the “MIC, CLSI QC range” value in experiment [3] is reported as “(0.03-0.25)^1 μg/mL”; in [7], “(0.008-0.06) μg/mL”. The “CLSI QC range (MIC)” value was “(0.03-0.25)^1 μg/mL” in the experiment on B. fragilis ATCC 25285 [5], “(0.008-0.06)^1 μg/mL” with E. coli ATCC 25922 and “(0.008-0.06) μg/mL” in experiment [8]. Further, the “time-kill kinetics outcome (bactericidal = ≥3 log reduction in CFU per mL)” value in the experiment on B. fragilis ATCC 25285 [6] was “rapid bactericidal activity against this organism at 6, 24 and 48 hr at 8×MIC, 24 and 48 hr at 4×MIC and at 24 hr at 2×MIC”; with B. ovatus MMX 3503 it was “bactericidal at 8×MIC at 6, 24 and 48 hr; at 4×MIC at 24 and 48 hr; and at 2×MIC at 24 hr with rebound growth at 48 hr”. Also, the “colonies on selection plates” value in the experiment on Bacteroides spp. was “No Streptococcus spp. or Bacteroides spp. colonies were selected”. Moreover, the MPC with B. ovatus and in the experiment on B. fragilis was 0.5 µg/mL in each case. Moreover, the “Average Count” value in the experiment on B. ovatus (selection 4X MIC, 0.5 μg/mL) is 0 CFU; in the experiment with B. ovatus (selection 8X MIC, 1 μg/mL) it was 0 CFU; in the experiment with B. fragilis (selection 4X MIC, 0.5 μg/mL), 0 CFU; in the experiment with B. fragilis (selection 8X MIC, 1 μg/mL) it was 0 CFU. The “Count 1” value with B. ovatus (selection 4X MIC, 0.5 μg/mL) turned out to be 0 CFU; in the experiment with B. ovatus (selection 8X MIC, 1 μg/mL), 0 CFU; in the experiment on B. fragilis (selection 4X MIC, 0.5 μg/mL), 0 CFU; in the experiment on B. fragilis (selection 8X MIC, 1 μg/mL), 0 CFU. Besides, the “Count 2” value in the experiment on B. ovatus (selection 4X MIC, 0.5 μg/mL) was determined as 0 CFU; with B. ovatus (selection 8X MIC, 1 μg/mL) it was 0 CFU; with B. fragilis (selection 4X MIC, 0.5 μg/mL), 0 CFU; in the experiment on B. fragilis (selection 8X MIC, 1 μg/mL), 0 CFU. Moreover, the “Spontaneous Mutation Frequency” value in the experiment on B. ovatus (selection 4X MIC, 0.5 μg/mL) is ≤1.05 × 10^−10; with B. ovatus (selection 8X MIC, 1 μg/mL), ≤1.05 × 10^−10; with B. fragilis (selection 4X MIC, 0.5 μg/mL), ≤1.48 × 10^−10; in the experiment with B. fragilis (selection 8X MIC, 1 μg/mL) it was ≤1.48 × 10^−10.
For orientation: MIC50 means an inhibitory concentration at the 50% level, which refers to growth in some studies and to a panel of isolates in others. As usually defined, the MIC90 is an inhibitory concentration at the 90% level, which refers to growth in some studies and to a panel of isolates in others. Take `CO/N=C(\C(=O)N[C@@H]1C(=O)N2C(C(=O)O)=C(CSc3nc(=O)c(=O)[nH]n3C)CS[C@H]12)c1csc(N)n1` [ceftriaxone]: the “CLSI QC range (agar MIC)” value is 32 to 128 µg/mL in experiment [1], 0.03 to 0.12 µg/mL in experiment [2] and 0.03 to 0.12 µg/mL in experiment [4]. In addition, in experiment [9] (MIC 4 μg/mL), the “Cumulative percentage of isolates inhibited at MIC” value came to 40.0%. Further, in the experiment with Prevotella spp., the “% S” value was 90%. For the same molecule, in the experiment on Prevotella spp., the MIC50 was 1 µg/mL (≈ 1.8 µM). Also, the MIC90 with Prevotella spp. is 8 µg/mL (≈ 14.4 µM). Moreover, the “MIC range” value with Prevotella spp. was no more than 0.008 to 64 µg/mL. Besides, the “CLSI QC range (MIC)” value in the experiment on E. coli ATCC 25922 was “(0.03-0.12) μg/mL”. In addition, the “MIC, CLSI QC range” value in [7] was “(0.03-0.12)^1 μg/mL”. The “MPC (mutation prevention concentration)” value in the experiment with Bacteroides spp. (B. vulgatus ATCC 8482) is 32 µg/mL. The Spontaneous Mutation Frequency is given as > 8.69×10^−8 in the experiment with Bacteroides spp. (B. vulgatus ATCC 8482, 4× the MIC) and ≤ 1.74×10^−10 in the experiment on Bacteroides spp. (B. vulgatus ATCC 8482, 8× the MIC).
Turning to `CO[C@H]1/C=C/O[C@@]2(C)Oc3c(C)c(O)c4c(O)c(c5c(nc6cc(C)ccn65)c4c3C2=O)NC(=O)/C(C)=C\C=C\[C@H](C)[C@H](O)[C@@H](C)[C@@H](O)[C@@H](C)[C@H](OC(C)=O)[C@@H]1C` [rifaximin], in experiment [9] (MIC 8 μg/mL), the “Cumulative percentage of isolates inhibited at MIC” value is 20.0%. Besides, in [9] (MIC 8 μg/mL), the “Number of test isolates at MIC” value worked out at 1. The “time-kill kinetics outcome (bactericidal = ≥3 log reduction in CFU per mL)” value was “did not show evidence of killing” with B. fragilis ATCC 25285 [6] and “rebounded to no-drug control levels at later time points” in the experiment with B. ovatus MMX 3503. Also, the rapid killing with B. ovatus MMX 3503 (6 hr) is listed as roughly 2 log10 CFU. Moreover, the MFC was greater than 4 µg/mL in the experiment on B. ovatus and greater than 2 µg/mL against B. fragilis. Besides, the “Average Count” value amounted to 34 CFU in the experiment with B. ovatus (setting [10]), 27 CFU in the experiment with B. ovatus (setting [11]), 11 CFU in the experiment with B. fragilis (setting [12]) and 8 CFU with B. fragilis (setting [13]). Also, the “Count 1” value with B. ovatus (setting [10]) is recorded as 31 CFU; in the experiment with B. ovatus (setting [11]), 28 CFU; in the experiment with B. fragilis (setting [12]), 12 CFU; with B. fragilis (setting [13]) it was 6 CFU. In addition, the “Count 2” value in the experiment on B. ovatus (setting [10]) is given as 37 CFU; with B. ovatus (setting [11]) it was 25 CFU; in the experiment with B. fragilis (setting [12]), 10 CFU; with B. fragilis (setting [13]) it was 9 CFU. Further, the “Spontaneous Mutation Frequency” value is reported as 3.58 × 10^−9 in the experiment with B. ovatus (setting [10]), 2.84 × 10^−9 in the experiment on B. ovatus (setting [11]), 1.63 × 10^−9 with B. fragilis (setting [12]) and 1.19 × 10^−9 with B. fragilis (setting [13]).
`Cc1ncc([N+](=O)[O-])n1CCO` [MTZ]: the “MIC, CLSI QC range” value in experiment [3] is on record as “(0.25-2) μg/mL”.
As to “piperacillin/tazobactam [piperacillin-tazobactam]”, in the experiment on B. fragilis ATCC 25285 [5], the “CLSI QC range (MIC)” value was “(4-16) μg/mL”.
